# Assay results as given in EP0063525A1, “Dibenzazepine tetracyclic derivatives, process for their preparation and pharmaceutical compositions containing them” (CENTRE NATIONAL DE LA RECHERCHE SCIENTIFIQUE (CNRS), priority 1981, dated 1982).
# Where two headings read alike, the source gives them in different places.
# Legend:
# Iléon de cobaye [1] = assay: spasmolytic action, anticholinergic effect (acetylcholine contraction); type: cell-based; conditions: acétylcholine 3 à 6 x 10^-5 mg/ml, six préparations; read-out: DE 50 (effet anticholinergique)
# Procedure: (§1) Les essais ont été effectués sur l'Iléon de cobaye maintenu en survie dans une solution de Tyrode oxygénée et thermostabilisée à 37° C suivant le méthode de MAGNUS.
# (§2) L'action spasmolytique du composé 2 a été étudiée en opposition avec les propriétés spasmogènes de l'acétylcholine, du chlorure de baryum, de l'histamine et de la sérotonine.
# Ces essais ont été effectués sur six préparations. L'effet inhibiteur du composé 2 a été recherché à l'encontre des propriétés contracturantes de l'acétylcholine utilisée à la concentration de 3 à 6 x 10^-5 mg/ml pour une cuve de 30 ml.
# [2] = acute toxicity in the mouse, intraperitoneal; type: in vivo, Souris; conditions: mouse, in vivo, ip, voie intrapéritonéale; for mortality at 48 h: read-out: Mortalité %
# Excerpt: (§3) Les produits ont été administrés par voie intrapéritonéale à des souris femelles dont le poids variait de 18 à 30 g.
# (§4) Les animaux injectés ont été maintenus dans une salle thermostatée, nourris et abreuvés à volonté.
# (§5) La mortalité a été relevée à 1 heure, 4 heures, 24 heures et 48 heures.
# souris femelles = assay: acute toxicity in the mouse, intraperitoneal; type: in vivo; conditions: voie intrapéritonéale, dead mice of the group
# Excerpt: as §3, §4, §5
# Iléon de cobaye [3] = assay: spasmolytic action, anti barium chloride effect; type: cell-based; conditions: BaCl2 6 x 10^-2 mg/ml
# Procedure: as §1, §2
# Ces essais ont été effectués sur douze préparations. Six ont été utilisées pour la recherche d'inhibition de la contraction ba- rytique dite curative, les six autres pour les essais dits "préventif baryum".
# La concentration de BaCl2 utilisée comme agent contracturant est de 6 x 10^-2 mg/ml.
# Souris [4] = assay: analgesic activity, phenylbenzoquinone writhing technique; type: in vivo
# Procedure: Ce test consiste à rechercher une éventuelle protection vis-à-vis des crampes ou contorsions abdominales provoquées chez la Souris par injection intrapéritonéale de phénylbenzoquinone.
# Les souris sont réparties au hasard par lots de 4 dans des cristallisoirs.
# Le compose 2 a été injecté par voie intrapéritonéale, 30 minutes avant l'injection de la phénylbenzoquinone.
# Les crampes abdominales sont comptées pour chaque souris pendant 30 minutes à partir de la quinzième minute qui suit l'injection de l'agent algogène.
# Souris [5] = assay: antireserpine activity: reserpine hypothermia; type: in vivo; conditions: réserpine 5 mg/kg i.p. 17 h before, product i.p. 5 mg/kg
# Summary of the method: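 Mice in groups of 4 given reserpine 5 mg/kg i.p.; 17 hours later rectal temperature taken by thermocouple and test substance or solvent given i.p. Temperature measured hourly for 4 hours. Reported as mean temperature changes at 1, 2, 3 and 4 hours, their 4-hour sum, and percent rise versus solvent controls.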
# rat = assay: medium-term toxicity in the rat, per os, 5 weeks; conditions: per os, 2, 10 et 50 mg/kg pendant 5 semaines
# Procedure: Cette étude a eu pour but de rechercher les effets éventuels du composé 2 sur les différents paramètres biologiques hématologi -ques et histologiques du rat après traitement per os à raison de 2,10 et 50 mg/kg pendant 5 semaines.
# Souris [6] = assay: tetrabenazine hypothermia; type: in vivo; conditions: product i.p. 5 mg/kg 30 min before tétrabénazine 32 mg/kg i.v.
# Iléon de cobaye [7] = assay: spasmolytic action, antihistaminic effect; type: cell-based; conditions: histamine 0,5 à 3 x 10^-5 mg/ml, cinq préparations; read-out: DE 50 envers le spasme provoqué par l'histamine
# Procedure: as §1, §2
# Ces essais ont été pratiqués sur cinq préparations. L'histamine a été utilisée à la concentration de 0,5 à 3 x 10^-5 mg/ml.
# Souris [8] = assay: tetrabenazine ptosis; type: in vivo; conditions: product i.p. 5 mg/kg 30 min before tétrabénazine 32 mg/kg i.v.
# chiens anesthésiés = assay: cardiovascular toxicity in the anaesthetised dog, slow perfusion; type: in vivo, Chien; conditions: in vivo, 20 mg/kg
# Procedure: L'étude du composé 2 a été effectuée sur 7 chiens anesthésiés à des doses allant de 4 à 20 mg/kg en perfusion lente.
# [9] = 20 mg/kg/IP 30 min before phényl-benzoquinone 10 mg/kg/IP
# [10] = 50 mg/kg/IP 30 min before phényl-benzoquinone 10 mg/kg/IP
smiles,measurement,setting,value
"CN(C)CCN1c2ccccc2C2ON=C(c3ccccc3)C2c2ccccc21 (stereo not drawn) [Composé 2, (β-diméthylaminoéthyl)-8 phényl-3 trihydro-3a,8, 12b (dibenzo [b,f]isoxazolo [4,5-d])azépine]",EC50,Iléon de cobaye [1],0.5 mg/L
same,LD50 at 48 h,"[2]; souris femelles, read-out: DL 50",95 mg/kg
same,mortality at 48 h,[2]; 10 mg/kg,0%
same,mortality at 48 h,[2]; 50 mg/kg,0%
same,mortality at 48 h,[2]; 75 mg/kg,0%
same,mortality at 48 h,[2]; 100 mg/kg,60%
same,mortality at 48 h,[2]; 200 mg/kg,100%
same,Mortalité en 1 heure,souris femelles; 10 mg/kg,0
same,Mortalité en 48 h.,souris femelles; 10 mg/kg,0
same,Mortalité en 1 heure,souris femelles; 50 mg/kg,0
same,Mortalité en 48 h.,souris femelles; 50 mg/kg,0
same,Mortalité en 1 heure,souris femelles; 75 mg/kg,0
same,Mortalité en 48 h.,souris femelles; 75 mg/kg,0
same,Mortalité en 1 heure,souris femelles; 100 mg/kg,3
same,Mortalité en 48 h.,souris femelles; 100 mg/kg,3
same,Mortalité en 1 heure,souris femelles; 200 mg/kg,4
same,Mortalité en 48 h.,souris femelles; 200 mg/kg,5
same,IC50,"Iléon de cobaye [3]; curative, read-out: concentration for inhibition de 50% de l'effet spasmogène, essais curatifs",1 mg/L
same,IC50,"Iléon de cobaye [3]; Cavia porcellus, preventive, read-out: concentration for inhibition de 50% de l'effet spasmogène, essais préventifs",0.5 mg/L
same,% de protection,Souris [4]; [9],70%
same,Nombre de crampes en 30 minutes,Souris [4]; [9],35
same,% de protection,Souris [4]; [10],100%
same,Nombre de crampes en 30 minutes,Souris [4]; [10],0
same,action protectrice envers le syndrome douloureux à la phénylbenzoquinone,Souris [4]; in vivo,action protectrice importante
same,change in vivo at 5 mg/kg,"Souris [5]; ip, 4 h, read-out: % d'augmentation par rapport aux témoins",155%
same,variation de température T= 2h,Souris [5],"+1,6"
same,variation de température T=3h,Souris [5],"+0,7"
same,variation de température T=4h,Souris [5],"+1,4"
same,paramètres biologiques hématologiques et histologiques du rat,rat,aucune modification
same,inhibition in vivo at 5 mg/kg,"Souris [6]; ip, 2 h, hypothermie, read-out: % de protection",3%
same,Température après tétrabénazine 30 minutes,Souris [6],"-3,2"
same,Température après tétrabénazine 60 minutes,Souris [6],"-2,6"
same,Température après tétrabénazine 90 minutes,Souris [6],"-1,3"
same,Température après tétrabénazine 120 minutes,Souris [6],"-1,3"
same,Température après tétrabénazine Total,Souris [6],"-8,3"
same,EC50,Iléon de cobaye [7],~0.05 mg/L
same,inhibition in vivo at 5 mg/kg,"Souris [8]; ip, 2 h, ptosis, read-out: % de protection",5%
same,Ptosis Total,Souris [8],"28,6"
same,Ptosis 30 minutes,Souris [8]; score 0-4 per eye,"4,8"
same,Ptosis 60 minutes,Souris [8]; score 0-4 per eye,"7,8"
same,Ptosis 90 minutes,Souris [8]; score 0-4 per eye,8
same,Ptosis 120 minutes,Souris [8]; score 0-4 per eye,8
same,toxicité sur le système cardiovasculaire comparativement à l'imipramine,chiens anesthésiés,plus faible toxicité
